Test results: patent US11464768B2, “Pimavanserin alone or in combination for use in the treatment of Alzheimer's disease psychosis” (ACADIA Pharmaceuticals Inc., priority 2016, dated 2022)

Key:
ADP patients [1] = assay: Same twelve-week study: NPI-NH Agitation/Aggression subscale (Domain C); type: in vivo, human; conditions: pimavanserin arm; placebo arm 0.47
Source text: To determine the score for a given domain, the caregivers rate frequency and severity of the resident's behavior for that particular domain. The frequency is rated on a 0-4 point scale. For example, the frequency is rated as a) 0 for not present; b) 1 for occasional; c) 2 for often; d) 3 for frequent; and e) 4 for very frequent occurrence of the behavior in question. The severity is rated on a 1-3 point scale. For example, the severity is rated as a) 1 for mild; b) 2 for moderate; and 3 for severe. The score of each domain is determined by multiplying the frequency rating score by the severity rating score. The score of each domain ranges from 0 to 12.
A twelve-week, randomized, double-blind, placebo-controlled, single-center study was conducted in ADP patients in nursing homes. […]
Nursing home staff administered the study drug to the patient each morning as a single oral dose (2×17 mg tablets) beginning within 24 hours of completion of all baseline assessments (Day 1). […] Behavioral symptoms were assessed using the NPI-NH Total and Individual Behavioral Domain scores and the Cohen-Mansfield Agitation Inventory—Short Form (CMAI-SF). […] In addition, evaluation of activities of daily living (ADL) was evaluated using the Alzheimer's Disease Cooperative Study-ADL instrument (ADCS-ADL). […]

ADP patients [2] = assay: Same twelve-week study: cognitive status by Mini-Mental State Examination (MMSE); type: in vivo, human; conditions: 34 mg once daily; 12 week study
Protocol: In some embodiments the effect of the treatment is an antipsychotic effect, for example determined by an improved patient score in the Neuropsychiatric Inventory-Nursing Home Version (NPI-NH) psychosis scale, without impairing cognition, as determined by Mini-Mental State Examiner (MMSE) score. In some embodiment the antipsychotic effect without impairing cognition is determined over the 12 weeks of treatment. The MMSE is a brief 30-point questionnaire that is used to quantitatively assess cognition (Folstein et al., Journal of Psychiatric Research. 12 (3): 189-98, 1975). The MMSE test includes simple questions and problems in a number of areas: the time and place of the test, repeating lists of words, arithmetic, language use and comprehension, and copying a drawing. […]
Each patient participated in a 3-week screening period, a 12-week double-blind treatment period, and a 4-week follow-up period. […] The safety of subjects was assessed by monitoring adverse events, physical examinations, vital signs, clinical laboratory tests (hematology, clinical chemistry, and urinalysis), and electrocardiograms. Furthermore cognitive status was assessed via MMSE.

SMILES: CC(C)COc1ccc(CNC(=O)N(Cc2ccc(F)cc2)C2CCN(C)CC2)cc1 [Pimavanserin, N-(1-methylpiperidin-4-yl)-N-(4-fluorophenylmethyl)-N′-(4-(2-methylpropyloxy)phenylmethyl)carbamide]
- improvement on the Agitation/Aggression subscale (Domain C) of the NPI-NH (ADP patients [1]): 1.13 points
- cognition as measured by the Mini-Mental State Examination (MMSE) score (ADP patients [2]): did not impair cognition
